Source: patent publication US5130307A, “Aminoesters of rapamycin” (American Home Products Corporation, priority 1991, dated 1992)
Values after ≈ are worked out from the molar mass of the structure shown.

Key:
[1] = test system: pinch skin graft from male DBA/2 donors transplanted to male BALB/c recipients; assay: survival time of pinch skin graft; format: in vivo; details: intraperitoneally; mean ± SD
Procedure: Immunosuppressive activity was evaluated in an in vitro standard pharmacological test procedure to measure lymphocyte proliferation (LAF) and in two in vivo standard pharmacological test procedures. The first in vivo procedure was a popliteal lymph node (PLN) test procedure which measured the effect of compounds of this invention on a mixed lymphocyte reaction and the second in vivo procedure evaluated the survival time of a pinch skin graft.
The second in vivo test procedure is designed to determine the survival time of pinch skin graft from male DBA/2 donors transplanted to male BALB/c recipients. The method is adapted from Billingham R.E. and Medawar P.B., J. Exp. Biol. 28:385-402, (1951). Briefly, a pinch skin graft from the donor is grafted on the dorsum of the recipient as a homograft, and an autograft is used as control in the same region. […] Untreated recipients serve as rejection control. The graft is monitored daily and observations are recorded until the graft becomes dry and forms a blackened scab. This is considered as the rejection day. The mean graft survival time (number of days ±S.D.) of the drug treatment group is compared with the control group.

[2] = test system: Candida albicans 3669; assay: antifungal plate test, MIC; format: cell-based
Procedure: (§1) The following represents the typical procedure used. Compound to be tested was placed on sterile dried 1/4" plate disks, and allowed to dry. Agar plates were seeded with fungi and allowed to solidify. The impregnated disks were placed on the seeded Agar surface and incubated for the time required for the particular culture. Results are expressed in MIC (μg/ml) to inhibit growth.

[3] = test system: Candida albicans ATCC 10231; assay: antifungal plate test, MIC; format: cell-based; details: ATCC10231
Procedure: as §1

[4] = test system: Candida albicans ATCC 38246; assay: antifungal plate test, MIC; format: cell-based; details: ATCC38246
Procedure: as §1

[5] = test system: Candida albicans ATCC 38247; assay: antifungal plate test, MIC; format: cell-based; details: ATCC38247
Procedure: as §1

[6] = test system: Candida albicans ATCC 38248; assay: antifungal plate test, MIC; format: cell-based; details: ATCC38248
Procedure: as §1

[7] = test system: transplant rejection; details: cited from earlier work

Compound	MIC [2]	MIC [3]	MIC [4]	MIC [5]	MIC [6]	Skin Graft (days + SD), mean graft survival time [1]	inhibition of transplant rejection / immunosuppressive effect (in words) [7]
CO[C@H]1C[C@@H]2CC[C@@H](C)[C@@](O)(O2)C(=O)C(=O)N2CCCC[C@H]2C(=O)O[C@H]([C@H](C)C[C@@H]2CC[C@@H](OC(=O)[C@H](CCC(=O)OC(C)(C)C)NC(=O)OC(C)(C)C)[C@H](OC)C2)CC(=O)[C@H](C)/C=C(\C)[C@@H](O)[C@@H](OC)C(=O)[C@H](C)C[C@H](C)/C=C/C=C/C=C/1C [Example 6, Rapamycin-42-ester with 5-(1,1-dimethylethoxy)-2-[[(1,1-dimethylethoxy)carbonyl]amino]-5-oxopentanoic acid]	> 0.4 µg/mL	0.1 µg/mL (≈ 0.0834 µM)	> 0.4 µg/mL	0.2 µg/mL (≈ 0.167 µM)	0.4 µg/mL (≈ 0.333 µM)	11.5 ± 3.5 days	
CO[C@H]1C[C@@H]2CC[C@@H](C)[C@@](O)(O2)C(=O)C(=O)N2CCCC[C@H]2C(=O)O[C@H]([C@H](C)C[C@@H]2CC[C@@H](OC(=O)[C@H](CC(=O)OCc3ccccc3)NC(=O)OC(C)(C)C)[C@H](OC)C2)CC(=O)[C@H](C)/C=C(\C)[C@@H](OC(=O)[C@H](CC(=O)OCc2ccccc2)NC(=O)OC(C)(C)C)[C@@H](OC)C(=O)[C@H](C)C[C@H](C)/C=C/C=C/C=C/1C [Example 7, Rapamycin-31,42-diester with 2-[[(1,1-dimethylethoxy)carbonyl]amino]-4-oxo-4-(phenylmethoxy) butanoic acid]						7.7 ± 1.5 days	
CO[C@H]1C[C@@H]2CC[C@@H](C)[C@@](O)(O2)C(=O)C(=O)N2CCCC[C@H]2C(=O)O[C@H]([C@H](C)C[C@@H]2CC[C@@H](OC(=O)C[C@H](NC(=O)OC(C)(C)C)C(=O)OCc3ccccc3)[C@H](OC)C2)CC(=O)[C@H](C)/C=C(\C)[C@@H](OC(=O)C[C@H](NC(=O)OC(C)(C)C)C(=O)OCc2ccccc2)[C@@H](OC)C(=O)[C@H](C)C[C@H](C)/C=C/C=C/C=C/1C [Example 8, Rapamycin-31,42-diester with 3-[[(1,1-dimethylethoxy)carbonyl]amino]-4-oxo-4-(phenylmethoxy) butanoic acid]	> 0.4 µg/mL	> 0.4 µg/mL	> 0.4 µg/mL	> 0.4 µg/mL	> 0.4 µg/mL		
CO[C@H]1C[C@@H]2CC[C@@H](C)[C@@](O)(O2)C(=O)C(=O)N2CCCC[C@H]2C(=O)O[C@H]([C@H](C)C[C@@H]2CC[C@@H](OC(=O)C[C@H](NC(=O)OC(C)(C)C)C(=O)OCc3ccccc3)[C@H](OC)C2)CC(=O)[C@H](C)/C=C(\C)[C@@H](O)[C@@H](OC)C(=O)[C@H](C)C[C@H](C)/C=C/C=C/C=C/1C [Example 9, Rapamycin-42-ester with 3-[[(1,1-dimethylethoxy)carbonyl]amino]-4-oxo-4-(phenylmethoxy) butanoic acid]	> 0.4 µg/mL	0.4 µg/mL (≈ 0.328 µM)	> 0.4 µg/mL	0.4 µg/mL (≈ 0.328 µM)	> 0.4 µg/mL	10.3 ± 0.8 days	
CO[C@H]1C[C@@H]2CC[C@@H](C)[C@@](O)(O2)C(=O)C(=O)N2CCCC[C@H]2C(=O)O[C@H]([C@H](C)C[C@@H]2CC[C@@H](OC(=O)CC[C@H](NC(=O)OC(C)(C)C)C(=O)OC(C)(C)C)[C@H](OC)C2)CC(=O)[C@H](C)/C=C(\C)[C@@H](OC(=O)CC[C@H](NC(=O)OC(C)(C)C)C(=O)OC(C)(C)C)[C@@H](OC)C(=O)[C@H](C)C[C@H](C)/C=C/C=C/C=C/1C [Example 11, Rapamycin-31,42-diester with 5-(1,1-dimethylethoxy)-4-[[(1,1-dimethylethoxy)-carbonyl]-amino]-5-oxopentanoic acid]	> 0.4 µg/mL	> 0.4 µg/mL	> 0.4 µg/mL	> 0.4 µg/mL	> 0.4 µg/mL	10.5 ± 1.3 days	
CO[C@H]1C[C@@H]2CC[C@@H](C)[C@@](O)(O2)C(=O)C(=O)N2CCCC[C@H]2C(=O)O[C@H]([C@H](C)C[C@@H]2CC[C@@H](OC(=O)[C@H](CCCCNC(=O)OC(C)(C)C)NC(=O)OC(C)(C)C)[C@H](OC)C2)CC(=O)[C@H](C)/C=C(\C)[C@@H](OC(=O)[C@H](CCCCNC(=O)OC(C)(C)C)NC(=O)OC(C)(C)C)[C@@H](OC)C(=O)[C@H](C)C[C@H](C)/C=C/C=C/C=C/1C [Example 13, Rapamycin-31,42-diester with N^α, N^ε bis [(1,1-dimethylethoxy)carbonyl]-L-lysine]	> 0.4 µg/mL	> 0.4 µg/mL	> 0.4 µg/mL	> 0.4 µg/mL	> 0.4 µg/mL	7.0 ± 0.6 days	
C=CC[C@@H]1/C=C(\C)C[C@H](C)C[C@H](OC)[C@H]2O[C@@](O)(C(=O)C(=O)N3CCCC[C@H]3C(=O)O[C@H](/C(C)=C/[C@@H]3CC[C@@H](O)[C@H](OC)C3)[C@H](C)[C@@H](O)CC1=O)[C@H](C)C[C@@H]2OC [FK-506]							effective as immunosuppressive agents

More lines, main results first:

MIC [2]	MIC [3]	MIC [4]	MIC [5]	MIC [6]	Compound	Skin Graft (days + SD), mean graft survival time [1]	inhibition of transplant rejection / immunosuppressive effect (in words) [7]
> 0.4 µg/mL	> 0.4 µg/mL	> 0.4 µg/mL	> 0.4 µg/mL	> 0.4 µg/mL	CO[C@H]1C[C@@H]2CC[C@@H](C)[C@@](O)(O2)C(=O)C(=O)N2CCCC[C@H]2C(=O)O[C@H]([C@H](C)C[C@@H]2CC[C@@H](OC(=O)CNC(=O)CNC(=O)OC(C)(C)C)[C@H](OC)C2)CC(=O)[C@H](C)/C=C(\C)[C@@H](O)[C@@H](OC)C(=O)[C@H](C)C[C@H](C)/C=C/C=C/C=C/1C [Example 1, Rapamycin-42-ester with N-[(1,1-dimethylethoxy)carbonyl]-glycylglycine]	12.0 ± 1.6 days	
0.1 µg/mL (≈ 0.0745 µM)	0.1 µg/mL (≈ 0.0745 µM)	0.2 µg/mL (≈ 0.149 µM)	0.2 µg/mL (≈ 0.149 µM)	0.2 µg/mL (≈ 0.149 µM)	CO[C@H]1C[C@@H]2CC[C@@H](C)[C@@](O)(O2)C(=O)C(=O)N2CCCC[C@H]2C(=O)O[C@H]([C@H](C)C[C@@H]2CC[C@@H](OC(=O)CNC(=O)CNC(=O)OC(C)(C)C)[C@H](OC)C2)CC(=O)[C@H](C)/C=C(\C)[C@@H](OC(=O)CNC(=O)CNC(=O)OC(C)(C)C)[C@@H](OC)C(=O)[C@H](C)C[C@H](C)/C=C/C=C/C=C/1C [Example 2, Rapamycin-31,42-diester with N-[(1,1-dimethylethoxy)carbonyl]-glycylglycine]	11.5 ± 0.6 days	
0.4 µg/mL (≈ 0.318 µM)	0.4 µg/mL (≈ 0.318 µM)	> 0.4 µg/mL	> 0.4 µg/mL	> 0.4 µg/mL	CO[C@H]1C[C@@H]2CC[C@@H](C)[C@@](O)(O2)C(=O)C(=O)N2CCCC[C@H]2C(=O)O[C@H]([C@H](C)C[C@@H]2CC[C@@H](OC(=O)CN(C)C(=O)OC(C)(C)C)[C@H](OC)C2)CC(=O)[C@H](C)/C=C(\C)[C@@H](OC(=O)CN(C)C(=O)OC(C)(C)C)[C@@H](OC)C(=O)[C@H](C)C[C@H](C)/C=C/C=C/C=C/1C [Example 3, Rapamycin-31,42-diester with N-[(1,1-dimethylethoxy)carbonyl]-N-methylglycine]	9.0 ± 0.9 days	
0.2 µg/mL (≈ 0.184 µM)	0.1 µg/mL (≈ 0.0921 µM)	0.4 µg/mL (≈ 0.369 µM)	0.1 µg/mL (≈ 0.0921 µM)	0.1 µg/mL (≈ 0.0921 µM)	CO[C@H]1C[C@@H]2CC[C@@H](C)[C@@](O)(O2)C(=O)C(=O)N2CCCC[C@H]2C(=O)O[C@H]([C@H](C)C[C@@H]2CC[C@@H](OC(=O)CN(C)C(=O)OC(C)(C)C)[C@H](OC)C2)CC(=O)[C@H](C)/C=C(\C)[C@@H](O)[C@@H](OC)C(=O)[C@H](C)C[C@H](C)/C=C/C=C/C=C/1C [Example 4, Rapamycin-42-ester with N-[(1,1-dimethylethoxy)carbonyl]-N-methylglycine]	12.3 ± 0.5 days	
> 0.4 µg/mL	> 0.4 µg/mL	> 0.4 µg/mL	> 0.4 µg/mL	> 0.4 µg/mL	CO[C@H]1C[C@@H]2CC[C@@H](C)[C@@](O)(O2)C(=O)C(=O)N2CCCC[C@H]2C(=O)O[C@H]([C@H](C)C[C@@H]2CC[C@@H](OC(=O)[C@H](CCC(=O)OC(C)(C)C)NC(=O)OC(C)(C)C)[C@H](OC)C2)CC(=O)[C@H](C)/C=C(\C)[C@@H](OC(=O)[C@H](CCC(=O)OC(C)(C)C)NC(=O)OC(C)(C)C)[C@@H](OC)C(=O)[C@H](C)C[C@H](C)/C=C/C=C/C=C/1C [Example 5, Rapamycin-31,42-diester with 5-(1,1-dimethylethoxy)-2-[[(1,1-dimethylethoxy)carbonyl]amino]-5-oxopentanoic acid]	8.8 ± 0.9 days	
0.4 µg/mL (≈ 0.333 µM)	0.2 µg/mL (≈ 0.167 µM)	> 0.4 µg/mL	0.2 µg/mL (≈ 0.167 µM)	0.4 µg/mL (≈ 0.333 µM)	CO[C@H]1C[C@@H]2CC[C@@H](C)[C@@](O)(O2)C(=O)C(=O)N2CCCC[C@H]2C(=O)O[C@H]([C@H](C)C[C@@H]2CC[C@@H](OC(=O)CC[C@H](NC(=O)OC(C)(C)C)C(=O)OC(C)(C)C)[C@H](OC)C2)CC(=O)[C@H](C)/C=C(\C)[C@@H](O)[C@@H](OC)C(=O)[C@H](C)C[C@H](C)/C=C/C=C/C=C/1C [Example 10, Rapamycin-42-ester with 5-(1,1-dimethyloxy)-4-[[(1,1-dimethylethoxy)carbonyl]amino]-5-oxopentanoicacid]	12.7 ± 1.2 days	
